From ChEMBL document CHEMBL1129317, “Novel selective and partial agonists of 5-HT3 receptors. Part 1. Synthesis and biological evaluation of piperazinopyrrolothienopyrazines” (J Med Chem, 1996)

Target: Adenosine receptor A1 (Homo sapiens) (UniProt P30542)
Experiment: Inhibitory activity against Adenosine A1 receptor using [3H]DPCPX at […] (M)

Adenosine receptor A1 (Homo sapiens), sequence (P30542 whole entry): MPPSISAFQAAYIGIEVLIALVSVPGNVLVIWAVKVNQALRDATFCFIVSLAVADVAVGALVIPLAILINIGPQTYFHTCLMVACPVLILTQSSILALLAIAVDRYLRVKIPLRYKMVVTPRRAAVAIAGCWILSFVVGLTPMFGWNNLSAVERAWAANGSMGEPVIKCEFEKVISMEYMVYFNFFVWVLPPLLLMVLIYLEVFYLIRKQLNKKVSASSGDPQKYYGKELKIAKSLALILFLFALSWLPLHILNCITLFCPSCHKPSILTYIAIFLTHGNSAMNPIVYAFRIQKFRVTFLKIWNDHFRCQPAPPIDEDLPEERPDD

With `c1ccc(CN2CCN(c3nc4ccsc4n4cccc34)CC2)cc1` the inhibition was 23%.
